These results are taken from patent US10800791B2, “Triazole ACC inhibitors and uses thereof” (Gilead Apollo, LLC, priority 2015, dated 2020).

The target of one experiment is human (hACC2) (Homo sapiens, UniProt O00763). The experiment in a line: In vitro ACC inhibition assay (ADP-Glo), hACC2. Type of experiment: biochemical. To be noted: Table 2b, additional results, 5 nM ACC2, 20 μM ATP, 20 μM acetyl-CoA. The procedure: The detailed procedure is as follows. […] 10 μL ADP glo reagent was added. […] 20 μL kinase detection reagent was added.
Sequence of human (hACC2) (O00763 whole entry): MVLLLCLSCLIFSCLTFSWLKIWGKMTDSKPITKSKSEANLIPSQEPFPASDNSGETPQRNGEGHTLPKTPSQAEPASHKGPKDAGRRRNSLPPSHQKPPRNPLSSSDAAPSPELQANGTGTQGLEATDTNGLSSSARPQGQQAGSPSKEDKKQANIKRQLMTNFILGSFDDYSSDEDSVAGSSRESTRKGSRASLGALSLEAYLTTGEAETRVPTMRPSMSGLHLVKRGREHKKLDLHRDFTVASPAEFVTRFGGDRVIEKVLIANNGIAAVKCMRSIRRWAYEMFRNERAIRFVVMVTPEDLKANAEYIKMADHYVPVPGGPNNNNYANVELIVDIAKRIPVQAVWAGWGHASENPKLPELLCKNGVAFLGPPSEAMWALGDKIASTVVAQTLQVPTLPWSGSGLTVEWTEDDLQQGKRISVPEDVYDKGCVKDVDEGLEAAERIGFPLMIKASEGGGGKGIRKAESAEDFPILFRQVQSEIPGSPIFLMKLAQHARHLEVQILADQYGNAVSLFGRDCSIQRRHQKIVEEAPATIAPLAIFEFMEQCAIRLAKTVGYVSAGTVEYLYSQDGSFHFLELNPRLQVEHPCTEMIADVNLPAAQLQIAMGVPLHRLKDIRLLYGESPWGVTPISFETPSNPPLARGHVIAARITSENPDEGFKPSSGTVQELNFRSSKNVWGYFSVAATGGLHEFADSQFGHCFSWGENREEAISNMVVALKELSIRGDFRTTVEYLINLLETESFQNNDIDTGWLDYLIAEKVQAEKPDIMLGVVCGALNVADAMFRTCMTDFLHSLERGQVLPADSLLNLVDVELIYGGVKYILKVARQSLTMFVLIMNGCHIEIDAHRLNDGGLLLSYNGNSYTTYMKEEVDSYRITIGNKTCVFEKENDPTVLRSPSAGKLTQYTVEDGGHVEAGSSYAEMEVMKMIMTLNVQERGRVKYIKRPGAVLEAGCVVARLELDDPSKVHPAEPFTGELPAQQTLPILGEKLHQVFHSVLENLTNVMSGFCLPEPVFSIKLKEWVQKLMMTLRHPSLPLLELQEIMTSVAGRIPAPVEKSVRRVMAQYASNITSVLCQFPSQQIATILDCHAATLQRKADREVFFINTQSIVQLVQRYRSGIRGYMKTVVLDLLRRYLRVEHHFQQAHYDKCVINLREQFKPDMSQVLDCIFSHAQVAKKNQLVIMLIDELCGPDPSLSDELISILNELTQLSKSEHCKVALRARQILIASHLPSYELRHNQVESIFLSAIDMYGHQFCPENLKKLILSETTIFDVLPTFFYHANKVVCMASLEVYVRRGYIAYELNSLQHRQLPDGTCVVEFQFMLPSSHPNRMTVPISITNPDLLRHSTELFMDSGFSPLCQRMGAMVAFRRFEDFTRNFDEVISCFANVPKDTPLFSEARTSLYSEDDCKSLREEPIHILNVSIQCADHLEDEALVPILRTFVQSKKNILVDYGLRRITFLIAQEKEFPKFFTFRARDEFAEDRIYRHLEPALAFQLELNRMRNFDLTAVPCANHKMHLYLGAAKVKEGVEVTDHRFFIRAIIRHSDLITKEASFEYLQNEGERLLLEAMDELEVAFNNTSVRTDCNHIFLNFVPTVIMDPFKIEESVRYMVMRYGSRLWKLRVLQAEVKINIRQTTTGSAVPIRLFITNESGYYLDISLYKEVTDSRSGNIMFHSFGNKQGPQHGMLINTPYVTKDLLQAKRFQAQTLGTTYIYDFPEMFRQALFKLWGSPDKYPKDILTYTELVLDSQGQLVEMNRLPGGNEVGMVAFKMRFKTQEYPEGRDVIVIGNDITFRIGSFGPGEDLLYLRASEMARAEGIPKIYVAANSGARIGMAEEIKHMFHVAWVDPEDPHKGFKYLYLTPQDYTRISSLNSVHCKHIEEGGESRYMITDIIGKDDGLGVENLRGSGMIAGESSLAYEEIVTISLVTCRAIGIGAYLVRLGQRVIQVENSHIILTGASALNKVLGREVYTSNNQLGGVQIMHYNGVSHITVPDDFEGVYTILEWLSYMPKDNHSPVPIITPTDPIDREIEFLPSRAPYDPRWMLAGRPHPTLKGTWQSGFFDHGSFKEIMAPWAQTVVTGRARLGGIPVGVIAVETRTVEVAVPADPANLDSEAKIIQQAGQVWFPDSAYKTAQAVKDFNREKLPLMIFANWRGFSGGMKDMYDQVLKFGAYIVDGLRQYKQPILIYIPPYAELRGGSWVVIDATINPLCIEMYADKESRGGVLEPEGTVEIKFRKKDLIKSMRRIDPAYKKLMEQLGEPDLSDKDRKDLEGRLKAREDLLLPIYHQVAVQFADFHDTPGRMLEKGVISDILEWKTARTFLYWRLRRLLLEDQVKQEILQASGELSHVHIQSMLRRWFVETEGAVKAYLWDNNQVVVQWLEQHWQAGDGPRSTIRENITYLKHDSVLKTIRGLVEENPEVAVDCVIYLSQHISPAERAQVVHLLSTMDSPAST

A further experiment concerns C. albicans. The experiment in a line: Antifungal Activity Assay (broth microtiter MIC), C. albicans. It is filed as cell-based, Candida albicans. To be noted: for MIC: Candida albicans, ATCC90028, 48 h. Put shortly:
(§1)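 CLSI M27-A3 microdilution; RPMI 1640+MOPS; 2.5×10^3 CFU/mL final inoculum; cultures from Sabouraud dextrose agar, 35° C overnight; compound working solution 128 μg/mL from 1 mg/mL DMSO stock; visual MIC at 48 h vs growth control.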

A further experiment deals with C. krusei. The experiment in a line: Antifungal Activity Assay (broth microtiter MIC), C. krusei. It is filed as cell-based, Candida krusei. To be noted: for MIC: Pichia kudriavzevii, ATCC6258, 48 h. Put shortly: as §1
For the next experiment, the system named is C. parapsilosis. The experiment in a line: Antifungal Activity Assay (broth microtiter MIC), C. parapsilosis. To be noted: for MIC: Lodderomyces parapsilosis, ATCC22019, 48 h. Type of experiment: cell-based, Candida parapsilosis. The procedure, abridged: as §1
The subject of another experiment is Botrtyis cinerea (Bc). The experiment in a line: Growth inhibition assay of fungal pathogens, Bc. To be noted: growth inhibition at 48 hours vs 2% DMSO control; for IC90: 48 h. It is filed as cell-based. The procedure, abridged:
(§2)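 Spores from sub-cultured plates were diluted in 17% V8 liquid medium and exposed to compound from DMSO stocks at final concentrations of 50, 10 and 2 ppm or 2, 0.4 and 0.08 ppm. OD600 and visual ratings at 48 h were compared with the 2% DMSO control to give percent growth inhibition.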

For experiment [1], the system named is Collectotrichum graminicola (Cg). The experiment in a line: Growth inhibition assay of fungal pathogens, Cg. To be noted: growth inhibition at 48 hours vs 2% DMSO control; for IC90: 48 h. It is filed as cell-based. Put shortly:
as §2

Another experiment has as its system Diplodia maydis (Dm). The experiment in a line: Growth inhibition assay of fungal pathogens, Dm. To be noted: growth inhibition at 48 hours vs 2% DMSO control; for IC90: Stenocarpella maydis, 48 h. It is filed as cell-based. Put shortly: as §2
The test system of experiment [2] is Fusarium moniliforme (Fm). The experiment in a line: Growth inhibition assay of fungal pathogens, Fm. It is filed as cell-based. To be noted: for IC90: Fusarium verticillioides, 48 h, read-out: Concentration at 90% Inhibition Fm. Put shortly:
as §2

Experiment [3] has as its system Fusarium virguliforme (Fv). The experiment in a line: Growth inhibition assay of fungal pathogens, Fv. Type of experiment: cell-based. To be noted: for IC90: 48 h. Put shortly: as §2
The test system of experiment [4] is Phytophthora capsici (Pc). The experiment in a line: Growth inhibition assay of fungal pathogens, Pc. Type of experiment: cell-based. To be noted: for IC90: 48 h. The procedure, abridged: as §2
The subject of the next experiment is Rhizoctonia solani (Rs). The experiment in a line: Growth inhibition assay of fungal pathogens, Rs. It is filed as cell-based. To be noted: for IC90: 48 h.
The next experiment has as its system Septoria tritici (St). The experiment in a line: Growth inhibition assay of fungal pathogens, St. It is filed as cell-based. To be noted: growth inhibition at 48 hours vs 2% DMSO control; for IC90: Zymoseptoria tritici, 48 h. Put shortly: as §2
The target in another experiment is fungal (fACC2) (UniProt Q00955). To be noted: read-out: fACC2 (in vitro ACC2 Inhibition Assay, IC50); Table 2b, additional results; ADP-Glo, 5 nM ACC2, 20 μM ATP, 20 μM acetyl-CoA.
Sequence of fungal (fACC2) (Q00955 whole entry): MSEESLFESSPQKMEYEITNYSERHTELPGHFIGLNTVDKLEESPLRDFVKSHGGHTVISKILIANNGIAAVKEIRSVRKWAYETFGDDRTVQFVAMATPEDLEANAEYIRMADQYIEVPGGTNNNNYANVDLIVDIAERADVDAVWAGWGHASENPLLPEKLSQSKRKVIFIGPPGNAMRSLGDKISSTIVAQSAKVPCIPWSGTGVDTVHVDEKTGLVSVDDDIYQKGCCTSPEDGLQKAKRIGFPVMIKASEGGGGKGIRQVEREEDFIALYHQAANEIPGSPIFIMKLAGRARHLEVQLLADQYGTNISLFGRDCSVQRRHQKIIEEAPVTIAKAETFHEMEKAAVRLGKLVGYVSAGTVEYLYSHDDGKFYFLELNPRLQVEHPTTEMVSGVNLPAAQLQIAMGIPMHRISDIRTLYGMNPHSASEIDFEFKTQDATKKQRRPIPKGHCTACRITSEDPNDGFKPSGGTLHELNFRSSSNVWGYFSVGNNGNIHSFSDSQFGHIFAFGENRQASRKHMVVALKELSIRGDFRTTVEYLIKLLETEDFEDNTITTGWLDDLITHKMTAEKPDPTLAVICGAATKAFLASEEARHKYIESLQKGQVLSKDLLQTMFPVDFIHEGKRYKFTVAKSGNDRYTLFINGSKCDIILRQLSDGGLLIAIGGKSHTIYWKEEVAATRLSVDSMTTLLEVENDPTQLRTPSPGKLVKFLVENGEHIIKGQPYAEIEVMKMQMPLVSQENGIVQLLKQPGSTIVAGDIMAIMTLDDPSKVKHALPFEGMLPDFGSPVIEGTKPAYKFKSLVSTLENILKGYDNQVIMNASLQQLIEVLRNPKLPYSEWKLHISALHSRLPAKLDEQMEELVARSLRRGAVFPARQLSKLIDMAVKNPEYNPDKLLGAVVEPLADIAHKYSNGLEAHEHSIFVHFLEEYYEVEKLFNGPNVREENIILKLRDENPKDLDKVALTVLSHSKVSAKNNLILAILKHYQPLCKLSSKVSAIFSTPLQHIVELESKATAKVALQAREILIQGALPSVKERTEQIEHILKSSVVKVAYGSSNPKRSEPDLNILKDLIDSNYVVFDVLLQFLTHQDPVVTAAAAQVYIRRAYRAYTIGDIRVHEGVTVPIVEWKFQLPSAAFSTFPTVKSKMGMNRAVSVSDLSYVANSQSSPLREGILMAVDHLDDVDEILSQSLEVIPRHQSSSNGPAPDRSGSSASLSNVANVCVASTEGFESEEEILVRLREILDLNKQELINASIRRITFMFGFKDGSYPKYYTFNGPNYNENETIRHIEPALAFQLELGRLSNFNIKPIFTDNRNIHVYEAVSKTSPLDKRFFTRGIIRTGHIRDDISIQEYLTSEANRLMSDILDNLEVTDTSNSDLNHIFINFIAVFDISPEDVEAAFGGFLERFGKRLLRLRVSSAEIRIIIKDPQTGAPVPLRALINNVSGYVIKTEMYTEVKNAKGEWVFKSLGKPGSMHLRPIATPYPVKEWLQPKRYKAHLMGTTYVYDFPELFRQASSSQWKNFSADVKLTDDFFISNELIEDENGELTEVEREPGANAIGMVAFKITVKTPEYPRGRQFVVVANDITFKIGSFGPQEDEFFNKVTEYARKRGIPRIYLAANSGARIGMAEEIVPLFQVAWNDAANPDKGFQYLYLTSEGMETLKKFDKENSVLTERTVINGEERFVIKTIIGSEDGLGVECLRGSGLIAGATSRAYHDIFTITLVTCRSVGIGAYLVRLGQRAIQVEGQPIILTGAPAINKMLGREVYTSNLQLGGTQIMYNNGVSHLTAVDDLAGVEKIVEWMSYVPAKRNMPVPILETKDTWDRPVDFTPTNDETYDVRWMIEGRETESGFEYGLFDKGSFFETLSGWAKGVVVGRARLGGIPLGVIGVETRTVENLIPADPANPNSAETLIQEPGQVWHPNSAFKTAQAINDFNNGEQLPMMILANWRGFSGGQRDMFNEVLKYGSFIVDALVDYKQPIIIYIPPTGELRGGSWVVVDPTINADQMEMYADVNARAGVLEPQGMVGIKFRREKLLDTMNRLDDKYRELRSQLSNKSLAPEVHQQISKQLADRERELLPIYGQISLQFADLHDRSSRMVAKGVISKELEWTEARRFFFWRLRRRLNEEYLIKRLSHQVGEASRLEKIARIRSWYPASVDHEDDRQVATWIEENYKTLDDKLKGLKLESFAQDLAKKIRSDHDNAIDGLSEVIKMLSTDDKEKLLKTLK
Where [5] appears, read: Table 3b (additional results), ATCC 90028, 3 replicates, MIC recorded at 48 h, read-out: MIC, C. albicans ATCC 90028.
[6] abbreviates: Table 3b (additional results), ATCC 6258, 3 replicates, MIC recorded at 48 h, read-out: MIC, C. krusei ATCC 6258.
The mark [7] stands for this setting: Table 3b (additional results), ATCC 22019, 3 replicates, MIC recorded at 48 h, read-out: MIC, C. parapsilosis ATCC 22019.
Where [8] appears, read: Diplodia maydis, read-out: Concentration at 90% Inhibition Dm.
The mark [9] stands for this setting: Fusarium moniliforme, growth inhibition at 48 hours vs 2% DMSO control.
Setting [10] is: growth inhibition at 48 hours vs 2% DMSO control, read-out: Concentration at 90% Inhibition Pc.
Setting [11] is: mycelial plugs, growth inhibition at 48 hours vs 2% DMSO control, read-out: Concentration at 90% Inhibition Rs.
Setting [12] is: Septoria tritici, read-out: Concentration at 90% Inhibition St.
The mark [13] stands for this setting: growth inhibition at 48 hours vs 2% DMSO control.
Setting [14] is: Table 3b (additional results), 3 replicates, MIC recorded at 48 h.

The structures appear in SMILES notation. ≈ marks a conversion by molar mass, not a printed value. Where two headings read alike, the source gives them in different places.

By IC50 is commonly meant the concentration that inhibits the measured activity by half. By MIC is commonly meant the least concentration at which growth counts as inhibited. `COc1ccc(F)cc1[C@H](Cn1c(=O)n(C(C)(C)C(=O)NC(C)C)c(=O)c2c(C)c(-n3nccn3)sc21)OC(=O)CO` [Compound I-262]: the half-inhibitory concentration (IC50) was more than 40 nM against human (hACC2) and 5 to 10 nM at fungal (fACC2). Further, the minimal inhibitory concentration (MIC) in the experiment with C. albicans (setting [5]) fell in the range of 0.25 to 1 µg/mL (≈ 0.415 to 1.66 µM); in the experiment with C. krusei (setting [6]), 0.06 to 0.249 µg/mL (≈ 0.0996 to 0.413 µM); in the experiment on C. parapsilosis (setting [7]) it was 1.01 to 2 µg/mL (≈ 1.68 to 3.32 µM). The IC90 was more than 50 µg/mL in the experiment on Botrtyis cinerea (Bc) (Botrtyis cinerea, read-out: Concentration at 90% Inhibition Bc); more than 50 µg/mL in experiment [1] (Collectotrichum graminicola, read-out: Concentration at 90% Inhibition Cg); more than 50 µg/mL with Diplodia maydis (Dm) (setting [8]); 10 µg/mL (≈ 16.6 µM) in experiment [2] (setting [9]); 10 µg/mL (≈ 16.6 µM) in experiment [3] (growth inhibition at 48 hours vs 2% DMSO control, read-out: Concentration at 90% Inhibition Fv); more than 50 µg/mL in [4] (setting [10]). Further, the IC90 in the experiment on Rhizoctonia solani (Rs) (setting [11]) and in the experiment on Septoria tritici (St) (setting [12]) was more than 50 µg/mL each time.
In the case of `COc1ccc(F)cc1CCn1c(=O)n(C(C)(C)C(=O)NC(C)C)c(=O)c2c(C)c(-n3nccn3)sc21` [Compound I-266], the IC50 at human (hACC2) fell in the range of 5 to 10 nM; at fungal (fACC2) it was 1 to 5 nM. In addition, the MIC was 1.01 to 2 µg/mL (≈ 1.91 to 3.78 µM) in the experiment with C. albicans (setting [5]), 0.25 to 1 µg/mL (≈ 0.473 to 1.89 µM) in the experiment on C. krusei (setting [6]) and 1.01 to 2 µg/mL (≈ 1.91 to 3.78 µM) in the experiment on C. parapsilosis (setting [7]). The “Concentration at 90% Inhibition Bc” value in the experiment with Botrtyis cinerea (Bc) (Botrtyis cinerea) was “B (compound concentration of 2.0 ppm at 90% inhibition of fungal pathogens)”. Further, the “Concentration at 90% Inhibition Cg” value in experiment [1] (Collectotrichum graminicola) was “B (compound concentration of 2.0 ppm at 90% inhibition of fungal pathogens)”. For the same compound, the IC90 with Diplodia maydis (Dm) (setting [8]) is 10 µg/mL (≈ 18.9 µM); in [4] (setting [10]), more than 50 µg/mL; in the experiment on Rhizoctonia solani (Rs) (setting [11]), 2 µg/mL (≈ 3.78 µM); in the experiment with Septoria tritici (St) (setting [12]) it was more than 50 µg/mL. Moreover, in experiment [2] (setting [9]), the “Concentration at 90% Inhibition Fm” value is recorded as “B (compound concentration of 2.0 ppm at 90% inhibition of fungal pathogens)”. Besides, the “Concentration at 90% Inhibition Fv” value in experiment [3] (setting [13]) is listed as “B (compound concentration of 2.0 ppm at 90% inhibition of fungal pathogens)”.
For the compound `COc1ccc(F)cc1[C@@H](CCCO)Cn1c(=O)n(C(C)(C)C(=O)NC(C)C)c(=O)c2c(C)c(-n3nccn3)sc21` [Compound I-267], the IC50 against human (hACC2) is more than 40 nM; at fungal (fACC2), 1 to 5 nM. Further, the minimal inhibitory concentration (MIC) in the experiment with C. albicans (read-out: MIC, C. albicans ATCC 90028, Table 3b (additional results), 3 replicates, MIC recorded at 48 h) was 0.25 to 1 µg/mL (≈ 0.426 to 1.7 µM); in the experiment with C. krusei (read-out: MIC, C. krusei ATCC 6258, Table 3b (additional results), 3 replicates, MIC recorded at 48 h) it was 0.06 to 0.249 µg/mL (≈ 0.102 to 0.424 µM); with C. parapsilosis (read-out: MIC, C. parapsilosis ATCC 22019, Table 3b (additional results), 3 replicates, MIC recorded at 48 h), 0.25 to 1 µg/mL (≈ 0.426 to 1.7 µM). The IC90 with Botrtyis cinerea (Bc) (read-out: Concentration at 90% Inhibition Bc, Botrtyis cinerea) is more than 50 µg/mL; in experiment [1] (read-out: Concentration at 90% Inhibition Cg, Collectotrichum graminicola) it was more than 50 µg/mL; in the experiment on Diplodia maydis (Dm) (read-out: Concentration at 90% Inhibition Dm, Diplodia maydis) it was more than 50 µg/mL; in experiment [2], 2 µg/mL (≈ 3.41 µM); in experiment [3] (read-out: Concentration at 90% Inhibition Fv, Fusarium virguliforme, growth inhibition at 48 hours vs 2% DMSO control), 10 µg/mL (≈ 17 µM); in experiment [4] (read-out: Concentration at 90% Inhibition Pc, Phytophthora capsici, growth inhibition at 48 hours vs 2% DMSO control), more than 50 µg/mL. Also, the IC90 in the experiment with Rhizoctonia solani (Rs) (read-out: Concentration at 90% Inhibition Rs, Rhizoctonia solani, mycelial plugs, growth inhibition at 48 hours vs 2% DMSO control) was more than 50 µg/mL; in the experiment with Septoria tritici (St) (read-out: Concentration at 90% Inhibition St, Septoria tritici) it was more than 50 µg/mL.
`COc1ccc(F)cc1CCn1c(=O)n(C(C)(C)C(=O)NC(C)C)c(=O)c2c(C)c(-n3nccn3)sc21` [Compound I-268]: the IC50 lay in the range of 10 to 40 nM on human (hACC2) and 1 to 5 nM at fungal (fACC2). Further, in the experiment with C. albicans (setting [14]), the “MIC, C. albicans ATCC 90028” value is on record as “B (MIC of 1.01-2.0 μg/mL)”. For the same compound, the “MIC, C. krusei ATCC 6258” value against C. krusei (setting [14]) was “A (MIC of 0.25-1.0 μg/mL)”. Further, the “MIC, C. parapsilosis ATCC 22019” value in the experiment with C. parapsilosis (setting [14]) is “B (MIC of 1.01-2.0 μg/mL)”. In addition, the “Concentration at 90% Inhibition Bc” value in the experiment on Botrtyis cinerea (Bc) (Botrtyis cinerea) is listed as “A (compound concentration of 0.4 ppm at 90% inhibition of fungal pathogens)”. The “Concentration at 90% Inhibition Cg” value in [1] (Collectotrichum graminicola) was “C (compound concentration of 10.0 ppm at 90% inhibition of fungal pathogens)”. Besides, the “Concentration at 90% Inhibition Dm” value with Diplodia maydis (Dm) (Diplodia maydis) was “C (compound concentration of 10.0 ppm at 90% inhibition of fungal pathogens)”. For the same compound, the “Concentration at 90% Inhibition Fm” value in experiment [2] (setting [9]) is listed as “A (compound concentration of 0.4 ppm at 90% inhibition of fungal pathogens)”. Moreover, in experiment [3] (setting [13]), the “Concentration at 90% Inhibition Fv” value is recorded as “AA (compound concentration of 0.08 ppm at 90% inhibition of fungal pathogens)”. In addition, the “Concentration at 90% Inhibition Pc” value in [4] (setting [13]) is “D (compound concentration of >50 ppm at 90% inhibition of fungal pathogens)”. Besides, in the experiment on Rhizoctonia solani (Rs) (mycelial plugs, growth inhibition at 48 hours vs 2% DMSO control), the “Concentration at 90% Inhibition Rs” value is “B (compound concentration of 2.0 ppm at 90% inhibition of fungal pathogens)”. Moreover, in the experiment on Septoria tritici (St) (Septoria tritici), the “Concentration at 90% Inhibition St” value is on record as “D (compound concentration of >50 ppm at 90% inhibition of fungal pathogens)”.
